The experiment addresses human 5-HT2C(VSV) (Homo sapiens, UniProt P28335, I156V/I160V/N158S). The experiment can be described thus: cell-based.

Molecules are shown by their SMILES.

Chain of human 5-HT2C(VSV) (P28335 33-458 I156V/N158S/I160V limits assumed): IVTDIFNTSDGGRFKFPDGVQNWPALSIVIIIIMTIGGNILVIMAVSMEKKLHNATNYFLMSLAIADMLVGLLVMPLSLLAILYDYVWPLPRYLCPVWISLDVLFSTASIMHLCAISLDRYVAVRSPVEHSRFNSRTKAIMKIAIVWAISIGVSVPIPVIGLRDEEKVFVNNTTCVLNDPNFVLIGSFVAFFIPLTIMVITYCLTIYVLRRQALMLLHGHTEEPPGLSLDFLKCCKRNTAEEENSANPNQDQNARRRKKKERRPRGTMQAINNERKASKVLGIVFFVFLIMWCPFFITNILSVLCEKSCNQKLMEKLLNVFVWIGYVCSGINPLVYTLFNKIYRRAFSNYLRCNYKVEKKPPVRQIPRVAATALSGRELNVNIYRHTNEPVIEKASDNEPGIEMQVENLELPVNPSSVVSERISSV

As for `CNCCc1cn(C)c2ccc(F)c(OCc3ccc(F)cc3)c12` [33-35, 2-(5-fluoro-4-(4-fluorobenzyloxy)-1-methyl-1H-indol-3-yl)-N-methylethanamine], the EC50 lay in the range of 1 to 500 nM. With `CCCn1cc(CCN)c2c3c(ccc21)OCCO3` [40-6, 2-(7-propyl-3,7-dihydro-2H-[1,4]dioxino[2,3-e]indol-9-yl)ethanamine], the concentration for a half-maximal effect (EC50) was less than 10000 nM. In the case of `CCn1cc(CCNCc2ccccc2)c2c(OC)ccc(F)c21` [20-4, N-benzyl-2-(1-ethyl-7-fluoro-4-methoxy-1H-indol-3-yl)ethanamine] it was 1 to 500 nM. To `CNCCc1cn(C)c2ccc(F)c(OCc3ccccc3Cl)c12` [33-23, 2-(4-(2-chlorobenzyloxy)-5-fluoro-1-methyl-1H-indol-3-yl)-N-methylethanamine] belongs 1 to 500 nM. `CCOc1c(F)ccc2c1c(CCNCc1cccc(C(F)(F)F)c1)cn2C` [30-22, 2-(4-ethoxy-5-fluoro-1-methyl-1H-indol-3-yl)-N-(3-(trifluoromethyl)benzyl)ethanamine] yielded an EC50 of 1 to 500 nM. To `CCn1cc(CCN(C)C)c2c(OCc3cccc(C(F)(F)F)c3)cc(F)cc21` [1-16b, 2-(1-ethyl-6-fluoro-4-(3-(trifluoromethyl)benzyloxy)-1H-indol-3-yl)-N,N-dimethylethanamine] belongs 500 to 10000 nM; to `CNCCc1cn(C)c2ccc(F)c(OCc3ccccc3-c3ccccc3)c12` [33-30, 2-(4-(biphenyl-2-ylmethoxy)-5-fluoro-1-methyl-1H-indol-3-yl)-N-methylethanamine], 1 to 500 nM. To `CNCCc1cn(C)c2ccc(F)c(OCc3ccccc3OC(F)(F)F)c12` [33-34, 2-(5-fluoro-1-methyl-4-(2-(trifluoromethoxy)benzyloxy)-1H-indol-3-yl)-N-methylethanamine] belongs 1 to 500 nM; to `CN(CCc1cn(C)c2ccc(F)c(OCc3ccccc3C#N)c12)Cc1ccccc1C#N` [35-2, 2-((3-(2-((2-cyanobenzyl)(methyl)amino)ethyl)-5-fluoro-1-methyl-1H-indol-4-yloxy)methyl)benzonitrile], 500 to 10000 nM.

The compound `COc1c(F)ccc2c1c(CCN1CCN(c3cccc(Cl)c3)CC1)cn2C` [17-15, 3-(2-(4-(3-chlorophenyl)piperazin-1-yl)ethyl)-5-fluoro-4-methoxy-1-methyl-1H-indole] registered an EC50 of 1 to 500 nM.

In turn, `CNCCc1cn(C)c2c(F)cc(CCC3CCCCC3)c(OC)c12` [23-5, 2-(5-(2-cyclohexylethyl)-7-fluoro-4-methoxy-1-methyl-1H-indol-3-yl)-N-methylethanamine] had an EC50 of 1 to 500 nM. `CCn1cc(CCN2CCNCC2)c2c(O)cc(F)cc21` [11-15, 1-ethyl-6-fluoro-3-(2-(piperazin-1-yl)ethyl)-1H-indol-4-ol] displayed an EC50 of 500 to 10000 nM. In the case of `CN(C)CCc1cn(C)c2ccc(F)c(OCCc3ccccc3)c12` [18-2, 2-(5-fluoro-1-methyl-4-phenethoxy-1H-indol-3-yl)-N,N-dimethylethanamine] it was 1 to 500 nM; in that of `CN(C)CCc1cn(Cc2ccccc2)c2c(F)ccc(OCc3ccccc3)c12` [7-2, 2-(1-benzyl-4-(benzyloxy)-7-fluoro-1H-indol-3-yl)-N,N-dimethylethanamine], 500 to 10000 nM.

Compound `CNCCc1cn(C)c2c(F)cc(CCc3ccccc3)c(OC)c12` [23-4, 2-(7-fluoro-4-methoxy-1-methyl-5-phenethyl-1H-indol-3-yl)-N-methylethanamine] registered an EC50 of 500 to 10000 nM. To `CCn1cc(CCN(C)C)c2c(OC)cc(-c3ccccc3)cc21` [36-6, 2-(1-ethyl-4-methoxy-6-phenyl-1H-indol-3-yl)-N,N-dimethylethanamine] belongs 500 to 10000 nM; to `CCOc1c(F)ccc2c1c(CCNCCc1ccccn1)cn2C` [30-27, 2-(4-ethoxy-5-fluoro-1-methyl-1H-indol-3-yl)-N-(2-(pyridin-2-yl)ethyl)ethanamine], 1 to 500 nM.

Regarding `COc1c(F)ccc2c1c(CCNCCCCc1ccccc1)cn2C` [17-13, N-(2-(5-fluoro-4-methoxy-1-methyl-1H-indol-3-yl)ethyl)-4-phenylbutan-1-amine], the 50% effective concentration (EC50) fell in the range of 1 to 500 nM. On to `CN(C)CCc1cn(Cc2ccccc2)c2c(F)ccc(O)c12` [7-3, 1-benzyl-3-(2-(dimethylamino)ethyl)-7-fluoro-1H-indol-4-ol], for which the EC50 was in the range of 500 to 10000 nM. To `CCn1cc(CCN2Cc3ccccc3C2)c2c(O)cc(F)cc21` [31-4, 1-ethyl-6-fluoro-3-(2-(isoindolin-2-yl)ethyl)-1H-indol-4-ol] belongs 500 to 10000 nM; to `CCn1cc(CCN(C)C)c2c(OC)c(CCc3nc4ccccc4[nH]3)cc(F)c21` [29-4, 2-(5-(2-(1H-benzo[d]imidazol-2-yl)ethyl)-1-ethyl-7-fluoro-4-methoxy-1H-indol-3-yl)-N,N-dimethylethanamine], 1 to 500 nM; to `CCn1cc(CCNC(c2ccccc2)c2ccccc2)c2c(O)cc(F)cc21` [31-10, 3-(2-(benzhydrylamino)ethyl)-1-ethyl-6-fluoro-1H-indol-4-ol], 1 to 500 nM. In the case of `CCn1cc(CCNCc2ccccc2Cl)c2c(OC)ccc(F)c21` [20-10, N-(2-chlorobenzyl)-2-(1-ethyl-7-fluoro-4-methoxy-1H-indol-3-yl)ethanamine] it was 1 to 500 nM. `CCn1cc(CCNC(C)c2ccccc2)c2c(OC)ccc(F)c21` (stereo not drawn) [20-8, 2-(1-ethyl-7-fluoro-4-methoxy-1H-indol-3-yl)-N-(1-phenylethyl)ethanamine]: the concentration giving a half-maximal response (EC50) was in the range of 1 to 500 nM. To `CCn1cc(CCNCC(C)c2ccccc2)c2c(O)cc(F)cc21` (stereo not drawn) [39-6, 1-ethyl-6-fluoro-3-(2-(2-phenylpropylamino)ethyl)-1H-indol-4-ol] belongs 1 to 500 nM; to `CCCn1cc(CCNC)c2c(OCc3ccc(F)cc3)c(F)ccc21` [33-15, 2-(5-fluoro-4-(4-fluorobenzyloxy)-1-propyl-1H-indol-3-yl)-N-methylethanamine], 1 to 500 nM; to `CCn1cc(CCNCc2ccccc2)c2c(O)cc(F)cc21` [26-8, 3-(2-(benzylamino)ethyl)-1-ethyl-6-fluoro-1H-indol-4-ol], 1 to 500 nM. Take `COc1ccc(F)c2c1c(CCN1CCCC1)cn2C` [11-10, 7-fluoro-4-methoxy-1-methyl-3-(2-(pyrrolidin-1-yl)ethyl)-1H-indole]: the EC50 lay within 1 to 500 nM.

As for `CNCCc1cn(C)c2cc(F)cc(OCc3ccccc3Cl)c12` [33-44, 2-(4-(2-chlorobenzyloxy)-6-fluoro-1-methyl-1H-indol-3-yl)-N-methylethanamine], the 50% effective concentration (EC50) fell in the range of 1 to 500 nM. In the case of `CCn1cc(CCN(C)C)c2c(Oc3ccccc3[N+](=O)[O-])ccc(F)c21` [2-2, 2-(1-ethyl-7-fluoro-4-(2-nitrophenoxy)-1H-indol-3-yl)-N,N-dimethylethanamine] it was 500 to 10000 nM; in that of `COc1c(F)ccc2c1c(CCN1CCNCC1)cn2C` [17-10, 5-fluoro-4-methoxy-1-methyl-3-(2-(piperazin-1-yl)ethyl)-1H-indole], 500 to 10000 nM; in that of `CCn1cc(CCN(C)C)c2c(OC)c(CCCO)cc(F)c21` [27-3, 3-(3-(2-(dimethylamino)ethyl)-1-ethyl-7-fluoro-4-methoxy-1H-indol-5-yl)propan-1-ol], 1 to 500 nM.

Compound `COc1ccc(CNCCc2cn(C)c3ccc(F)c(OC)c23)cc1OC` [34-8, N-(3,4-dimethoxybenzyl)-2-(5-fluoro-4-methoxy-1-methyl-1H-indol-3-yl)ethanamine] returned an EC50 of 1 to 500 nM.

Values taken from US8912220B2 (priority 2009, dated 2014).
